Usually IC50 stands for the concentration that gives 50% inhibition. Lower therefore signals greater potency.

Here are results for one compound from PMC8689681 (The Journal of Experimental Medicine, 2021).

In the test the target is ADAM17 (Homo sapiens, UniProt P78536). Briefly: fluorogenic peptide. The format is biochemical.
Sequence of ADAM17 (P78536 215-474 limits assumed): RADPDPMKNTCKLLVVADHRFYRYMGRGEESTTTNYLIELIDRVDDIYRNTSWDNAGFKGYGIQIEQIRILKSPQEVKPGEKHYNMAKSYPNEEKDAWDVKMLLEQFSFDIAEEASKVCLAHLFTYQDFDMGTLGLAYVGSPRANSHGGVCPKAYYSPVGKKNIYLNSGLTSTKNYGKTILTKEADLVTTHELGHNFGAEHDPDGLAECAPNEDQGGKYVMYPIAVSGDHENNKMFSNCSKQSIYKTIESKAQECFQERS

With `CC(C)C[C@H](CC(=O)NO)C(=O)N[C@@H](Cc1ccc2ccccc2c1)C(=O)N[C@@H](C)C(=O)NCCN` [TAPI-1], the IC50 is 128 ± 0.9 nM.
